test system: MCF-7, clone WS8, cells; test: MCF-7 cell proliferation assay of estrogenic activity; assay type: cell-based, human; conditions: logarithmic value (base 10) of Relative Proliferative Effect in the MCF-7 assay; table gives 'expected or measured' values
Text: The MCF-7 assay is a useful test for assessing whether a polyhydric phenol compound is appreciably non-estrogenic. The MCF-7 assay uses MCF-7, clone WS8, cells to measure whether and to what extent a substance induces cell proliferation via estrogen receptor (ER)-mediated pathways. The method is described in “Test Method Nomination: MCF-7 Cell Proliferation Assay of Estrogenic Activity” submitted for validation by CertiChem, Inc. to the National Toxicology Program Interagency Center for the Evaluation of Alternative Toxicological Methods (NICEATM) on Jan. 19, 2006 (available online at http://iccvam.niehs.nih.gov/methods/endocrine/endodocs/SubmDoc.pdf).
A brief summary of the method of the aforementioned MCF-7 assay is provided below. MCF-7, clone WS8, cells are maintained at 37° C. in RMPI (or Roswell Park Memorial Institute medium) containing Phenol Red (e.g., GIBCO Catalog Number 11875119) and supplemented with the indicated additives for routine culture. An aliquot of cells maintained at 37° C. are grown for 2 days in phenol-free media containing 5% charcoal stripped fetal bovine serum in a 25 cm^2 tissue culture flask. Using a robotic dispenser such as an epMotion 5070 unit, MCF-7 cells are then seeded at 400 cells per well in 0.2 ml of hormone-free culture medium in Corning 96-well plates. The cells are adapted for 3 days in the hormone-free culture medium prior to adding the chemical to be assayed for estrogenic activity. The media containing the test chemical is replaced daily for 6 days. At the end of the 7-day exposure to the test chemical, the media is removed, the wells are washed once with 0.2 ml of HBSS (Hanks' Balanced Salt Solution), and then assayed to quantify amounts of DNA per well using a micro-plate modification of the Burton diphenylamine (DPA) assay, which is used to calculate the level of cell proliferation.
RPE is the ratio between the EC50 of the test chemical and the EC50 of the control substance 17-beta estradiol times 100, where EC50 is “effective concentration […]” or half-maximum stimulation concentration for cell proliferation measured as total DNA in the MCF-7 assay.

Row | SMILES | Log RPE
1 | CC(C)(c1cc(Br)c(O)c(Br)c1)c1cc(Br)c(O)c(Br)c1 [Structure 16] | −3
2 | CC(C)(c1ccc(O)cc1)c1ccc(C(C)(C)c2ccc(O)cc2)cc1 [Structure 10] | less than −4
3 | Oc1ccc(Cc2ccc(O)cc2)cc1 [Bisphenol F, reference compound] | −2
4 | CC/C(=C(/CC)c1ccc(O)cc1)c1ccc(O)cc1 [diethylstilbestrol, reference compound] | about 2
5 | CC(C)(C)c1cc(O)c(C(C)(C)C)cc1O [Structure 12] | less than −4
6 | CCCC(c1cc(C(C)(C)C)c(O)cc1C)c1cc(C(C)(C)C)c(O)cc1C [Structure 7] | less than −4
7 | CC(c1ccccc1)(c1ccc(O)cc1)c1ccc(O)cc1 [Structure 4] | −3
8 | O=c1c(-c2ccc(O)cc2)coc2cc(O)cc(O)c12 [Genistein, reference compound] | −2
9 | CC(C(=O)O)(c1ccc(O)cc1)c1ccc(O)cc1 [Structure 5] | less than −4
10 | Oc1ccccc1Cc1ccccc1O [Structure 11] | less than −4
11 | C[C@]12CC[C@@H]3c4ccc(O)cc4CC[C@H]3[C@@H]1CC[C@@H]2O [17β-estradiol, reference compound] | 2.00
12 | CC(c1ccc(O)cc1)(c1ccc(O)cc1)c1ccc(O)cc1 [Structure 3] | −3
13 | C/C=C(/C(=C/C)c1ccc(O)cc1)c1ccc(O)cc1 [dienestrol, reference compound] | about 2
14 | O=S(=O)(c1ccc(O)cc1)c1ccc(O)cc1 [Bisphenol S, reference compound] | −2

— patent US12043448B2, “Compositions for containers and other articles and methods of using same” (SWIMC LLC, priority 2012, dated 2024)
